The target of test [1] is T1, L-cysteine:1D-myo-inositol 2-amino-2-deoxy-alpha-D-glucopyranoside ligase (Mycobacterium tuberculosis, UniProt P9WJM9).
T1 sequence (P9WJM9 whole entry): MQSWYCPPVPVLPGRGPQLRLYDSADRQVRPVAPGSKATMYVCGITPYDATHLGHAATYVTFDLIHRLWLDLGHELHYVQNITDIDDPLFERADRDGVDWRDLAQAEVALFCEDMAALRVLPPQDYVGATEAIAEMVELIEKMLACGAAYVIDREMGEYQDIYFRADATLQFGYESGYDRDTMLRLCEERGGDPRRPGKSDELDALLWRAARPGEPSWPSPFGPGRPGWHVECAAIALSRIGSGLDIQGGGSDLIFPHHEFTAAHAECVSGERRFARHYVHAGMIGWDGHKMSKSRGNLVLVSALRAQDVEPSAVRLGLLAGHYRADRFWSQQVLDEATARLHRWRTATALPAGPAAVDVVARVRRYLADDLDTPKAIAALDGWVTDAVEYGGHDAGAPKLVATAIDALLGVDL
The test can be described thus: Inhibition of Mycobacterium tuberculosis recombinant MBP-tagged MshC assessed as formation of fluorescently labeled Cys-GlcN-Ins by HPLC.

The target of test [2] is T2, L-cysteine:1D-myo-inositol 2-amino-2-deoxy-alpha-D-glucopyranoside ligase (Mycobacterium tuberculosis) (UniProt P9WJM9).
T2 sequence (whole entry): T1 sequence (P9WJM9 whole entry)
The test can be described thus: Binding affinity to Mycobacterium tuberculosis recombinant MBP-tagged MshC by STD-NMR analysis.

Test [3] addresses T1, L-cysteine:1D-myo-inositol 2-amino-2-deoxy-alpha-D-glucopyranoside ligase. Description: Binding affinity to Mycobacterium tuberculosis recombinant MBP-tagged MshC by isothermal titration calorimetry assay. (ITC needs no label: the signal is the heat of the interaction.)
Test [4] concerns the target T2, L-cysteine:1D-myo-inositol 2-amino-2-deoxy-alpha-D-glucopyranoside ligase (Mycobacterium tuberculosis). Description: Binding affinity to Mycobacterium tuberculosis recombinant MBP-tagged MshC by transferred NOESY analysis.

Active and inactive are the calls of the source. The rule behind the calls is not given here.

As usually defined, the IC50 is the concentration needed to halve the response being measured. Usually Kd stands for the free concentration of one partner at which half of the binding sites on the other are occupied at equilibrium, for simple one-to-one binding.

Turning to `C[C@@H]1C[C@H](C)C[C@H](C)[C@@H](O)CC(=O)O[C@H]([C@@H]2CCC[C@H]2C(=O)O)C/C=C/C=C(/C#N)[C@H](O)[C@@H](C)C1` [BORRELIDIN], in test [1], the IC50 was > 2000 µM.
For the compound `C[C@@H]1Cc2c(Cl)cc(C(=O)N[C@@H](Cc3ccccc3)C(=O)O)c(O)c2C(=O)O1` [3R14S-OCHRATOXIN A], the IC50 in test [1] turned out to be 2500 µM.
Still for that read-out and setting: as for `N[C@H]1CCC[C@H]1C(=O)O`, the figure is > 4000 µM.
`Nc1ncnc2c1ncn2[C@@H]1O[C@H](COS(=O)(=O)NC(=O)[C@@H](N)CS)[C@@H](O)[C@H]1O`: the result in test [2] was inactive. In addition, the half-maximal inhibitory concentration (IC50) in test [1] came to 0.05 µM. In addition, the Kd in test [3] was determined as 0.0485 µM.
For `Nc1ncnc2c1ncn2[C@@H]1O[C@H](COS(=O)(=O)NC(=O)[C@@H](N)CO)[C@@H](O)[C@H]1O`, the IC50 in test [1] stood at 5000 µM.
Same read-out and setting: under `C/C(=C\C(=O)OCCCCCCCCC(=O)O)C[C@@H]1OC[C@H](C[C@@H]2O[C@H]2[C@@H](C)[C@H](C)O)[C@@H](O)[C@H]1O` [MUPIROCIN] stands > 5000 µM.
As to `Nc1ncnc2c1ncn2[C@@H]1O[C@H](COS(=O)(=O)NC(=O)[C@@H](N)CC(=O)O)[C@@H](O)[C@H]1O`, the outcome in test [2] and in test [4] was inactive. The IC50 in test [1] is 1200 µM.

The record behind these values is ChEMBL document CHEMBL1759889, “Susceptibility and mode of binding of the Mycobacterium tuberculosis cysteinyl transferase mycothiol ligase to tRNA synthetase inhibitors” (Bioorg Med Chem Lett, 2011).
